Results: patent US20190358181A1, “METHODS FOR AUTISM SPECTRUM DISORDER PHARMACOTHERAPY” (priority 2017, published 2019)
Like-named read-outs stand apart in the source and are kept apart here.

Experiment: Suramin plasma pharmacokinetics by LC-MS/MS, two compartment population PK model, pediatric patients
Assay type: in vivo, human
Details: for concentration at 1 h: read-out: 1-Hour Plasma Conc; for concentration at 45 days: read-out: 45-Day Plasma Conc; for concentration at 2 days: read-out: 2-Day Plasma Conc
Method: For the test dose, 50 mg of suramin hexasodium (Bayer Pharmaceuticals, Inc.) in 5 mL of saline (experimental arm, 5 patients), or 5 mL of saline only (control arm, 5 patients) were given by slow intravenous (IV) push over 3 minutes, followed by a 10 mL flush of saline. One hour after the test dose, vital signs were repeated and a single infusion of either suramin (20 mg/kg, minus the 50 mg test dose, in 50 mL, up to a maximum of 1 gram) or saline (50 mL IV) was given over 30 minutes, followed by a 10 mL flush of saline.
Suramin pharmacokinetics was assessed by serum isolation at the 4 time points immediately before and after the infusion. […] Unexpected and adverse events were recorded as they occurred and graded in severity according to the National Cancer Institute Common Terminology Criteria for Adverse Events v4.03 (CTCAE) scale. Additional pharmacovigilence monitoring included daily scripted phone calls in the first week, then 4 weekly calls until the exit examinations at 6 weeks.
Heparinized plasma, 90 μl was prepared for LC-MS/MS analysis. Ten (10) μl of 50 μM stock of trypan blue was added to achieve an internal standard concentration of 5μM. This was incubated at room temperature for 10 min to permit metabolite interaction with binding proteins, then extracted with 4 volumes (400 μl) of pre-chilled methanol-acetonitrile (50:50) to produce a final concentration of 40:40:20 (methanol:acetonitrile:H2O), and precipitated on ice for 10 minutes. The samples were deproteinated and macromolecules removed by precipitation on crushed ice for 10 min.
The mixture was centrifuged at 16,000g for 10 min at 4° C. and the supernatant was transferred to a new tube and kept at −80° C. for further LC-MS/MS analysis.
Suramin was detected in the prepared samples on an AB SCIEX QTRAP 5500 triple quadrupole mass spectrometer equipped with a Turbo V electrospray ionization (ESI) source, Shimadzu LC-20A UHPLC system, and a PAL CTC autosampler. […] The mobile phase A was water with 20 mM ammonium acetate (NH4OAC) (pH 7) and mobile phase B was methanol with 20 mM NH4OAC (pH 7). […] The flow rate was 400 μl/min. All the samples were kept at 4° C. during analysis. Suramin and trypan blue were detected using MRM scanning mode with the dwell time of 180 ms. […] Absolute concentrations of suramin were determined using a standard curve prepared in plasma to account for matrix effects, and the peak area ratio of suramin to the internal standard trypan blue. […] The ESI source parameters were set as follows: source temperature 500° C.; curtain gas 30; ion source gas 1, 35; ion source gas 2 35; spray voltage −4500 V. Analyst v1.6 was used for data acquisition and analysis.
The small number of PK samples per subject prevented a standard, non-compartmental analysis in individual subjects. The suramin drug concentrations were analyzed using a population PK approach with post-hoc empiric Bayesian estimate of PK parameters in individual subjects. The PK data were fit to a two compartment model using the computer program NONMEM (ICON, Dublin, Ireland). PK parameters were scaled allometrically with volume terms scaled to linear body weight (kg1.0) and clearance terms scaled to weight (kg0.75). Scaled adult suramin parameters of compartmental volumes of distribution and clearance were used as initial parameter estimates and between subject variability only estimated for clearance (CL) and the peripheral volume of distribution (Vd).

[1] = human, plasma, iv, 20 mg/kg, Mean of 5 subjects, 20 mg/kg (558 mg/m^2) IV
[2] = human, plasma, iv, 460 mg, ID 007, 460 mg (529 mg/m^2) IV
[3] = human, plasma, iv, 460 mg, ID 012, 460 mg (529 mg/m^2) IV
[4] = human, plasma, iv, 500 mg, ID 005, 500 mg (526 mg/m^2) IV
[5] = human, plasma, iv, 680 mg, ID 001, 680 mg (591 mg/m^2) IV
[6] = human, plasma, iv, 1000 mg, ID 014, 1000 mg (613 mg/m^2) IV
[7] = human, plasma, Mean of 5 subjects, 20 mg/kg (558 mg/m^2) IV

Cc1ccc(C(=O)Nc2ccc(S(=O)(=O)O)c3cc(S(=O)(=O)O)cc(S(=O)(=O)O)c23)cc1NC(=O)c1cccc(NC(=O)Nc2cccc(C(=O)Nc3cc(C(=O)Nc4ccc(S(=O)(=O)O)c5cc(S(=O)(=O)O)cc(S(=O)(=O)O)c45)ccc3C)c2)c1 [Suramin, suramin]
clearance (20 mg/kg IV): 0.056±0.011 L/hr/m2
steady-state volume of distribution (20 mg/kg IV): 22.7±2.6 L/m2
suramin levels (before Day 2, all subjects): below 100 μM
plasma concentrations maintained (between 2 days and 5-6 weeks following the dose): 1.5 to 15 µM
half-life (human, plasma, iv, 20 mg/kg, 20 mg/kg IV, read-out: alpha (distribution) phase half-life (converted)): 0.308 ± 0.0229 days
concentration at 1 h [1]: 104 µM
concentration at 45 days [1]: 1.54 µM
half-life (human, plasma, iv, 20 mg/kg, Mean of 5 subjects, 20 mg/kg (558 mg/m^2) IV, read-out: Plasma Half-Life (terminal elimination phase half-life) (converted)): 14.7 days
concentration at 1 h [2]: 87.9 µM
concentration at 2 days [2]: 11.9 µM
concentration at 45 days [2]: 1.67 µM
concentration at 1 h [3]: 119 µM
concentration at 2 days [3]: 13.8 µM
concentration at 45 days [3]: 2.28 µM
half-life (human, plasma, iv, 460 mg, ID 012, 460 mg (529 mg/m^2) IV, read-out: Plasma Half-Life (converted)): 16.5 days
concentration at 1 h [4]: 102 µM
concentration at 2 days [4]: 10.6 µM
concentration at 45 days [4]: 1.76 µM
half-life (human, plasma, iv, 500 mg, ID 005, 500 mg (526 mg/m^2) IV, read-out: Plasma Half-Life (converted)): 15 days
concentration at 1 h [5]: 101 µM
concentration at 2 days [5]: 13.2 µM
concentration at 45 days [5]: 0.96 µM
half-life (human, plasma, iv, 680 mg, ID 001, 680 mg (591 mg/m^2) IV, read-out: Plasma Half-Life (converted)): 12.6 days
concentration at 1 h [6]: 111 µM
concentration at 2 days [6]: 10.6 µM
concentration at 45 days [6]: 1.04 µM
half-life (human, plasma, iv, 1000 mg, ID 014, 1000 mg (613 mg/m^2) IV, read-out: Plasma Half-Life (converted)): 14.9 days
clearance (human, plasma, 20 mg/kg IV, read-out: clearance (converted)): 1.95 mL/h/kg
Vd (human, plasma, 20 mg/kg IV, read-out: steady-state volume of distribution): 0.83 ± 0.014 L/kg
concentration at 1 h [7]: 104 ± 11.6 µM
concentration at 2 days [7]: 12 ± 1.5 µM
